Article PMC3056319 (Journal of medicinal chemistry, 2011)
Like-named read-outs stand apart in the source and are kept apart here.

Assays:
[1] = tested on: P. falciparum African D6 clone; experiment: microbe, parasite or virus in culture; type: cell-based; conditions: Plasmodium falciparum, D6, read-out: Antimalarial activity IC50, D6
[2] = tested on: P. falciparum Indochina W2 clone; experiment: microbe, parasite or virus in culture; type: cell-based
[3] = tested on: P. falciparum multidrug resistant C235 strain (Thailand); experiment: microbe, parasite or virus in culture; type: cell-based
recombinant BoNT/A LC [4] = biological target: T1, recombinant BoNT/A LC (Clostridium botulinum, UniProt P0DPI0); conditions: cited from earlier work
recombinant BoNT/A LC [5] = biological target: T1, recombinant BoNT/A LC; type: biochemical, Closteridium botulinum
EBOV = conditions: cited from earlier work
[6] = tested on: RAW 264.7 (rat macrophage) cell line; type: cell-based
[7] = tested on: P. berghei (ANKA strain) sporozoites; parameters: species or system ICR mice (Mus musculus); conditions: mouse, in vivo
[8] = tested on: Recombinant Zaire Ebola virus (EBOV-eGFP); experiment: microbe, parasite or virus in culture; type: cell-based; conditions: read-out: EBOV inhibition IC50
P. berghei (P Line) = conditions: mouse
Vero76 cells = conditions: African green monkey

T1 sequence (P0DPI0 2-448 limits assumed): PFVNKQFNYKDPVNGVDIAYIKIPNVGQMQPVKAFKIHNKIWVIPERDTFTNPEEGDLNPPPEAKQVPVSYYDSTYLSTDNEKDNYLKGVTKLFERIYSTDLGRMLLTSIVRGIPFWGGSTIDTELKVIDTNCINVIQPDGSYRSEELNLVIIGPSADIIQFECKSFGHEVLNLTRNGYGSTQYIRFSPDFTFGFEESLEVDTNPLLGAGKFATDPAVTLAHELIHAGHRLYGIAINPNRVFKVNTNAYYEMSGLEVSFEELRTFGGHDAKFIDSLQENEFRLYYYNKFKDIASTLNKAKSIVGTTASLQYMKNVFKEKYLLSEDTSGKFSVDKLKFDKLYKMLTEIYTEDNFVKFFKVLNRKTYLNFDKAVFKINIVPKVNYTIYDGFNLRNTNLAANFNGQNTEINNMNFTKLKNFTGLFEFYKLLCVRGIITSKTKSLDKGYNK

| Structure (SMILES) | Resistance index (RI) W2/D6 [2] | Selectivity index (IC50) D6 [6] | Selectivity index (IC50) W2 [6] | Selectivity index (IC90) C235 [6] | Selectivity index (IC90) D6 [6] | Selectivity index (IC90) W2 [6] | Toxicity at 20 µM (Vero76 cells) [%] | cell toxicities in dose-response studies (Vero76 cells) [%] | also measured |
| --- | --- | --- | --- | --- | --- | --- | --- | --- | --- |
| CCN(CC)CCCC(C)Nc1ccnc2cc(Cl)ccc12 (stereo not drawn) [CQ, chloroquine, reference compound] | – | – | – | – | – | – | – | – | IC50 [1]: 0.0123 µM; IC50 ([2]; Plasmodium falciparum, W2, read-out: Antimalarial activity IC50, W2): 0.456 µM; IC50 ([3]; Plasmodium falciparum, read-out: Antimalarial activity IC50, C235): 0.139 µM; BoNT/A LC inhibition (recombinant BoNT/A LC [4]): weakly inhibit the BoNT/A LC |
| Cc1cc(NCCCN)c2ccc3c(ccc4c(NCCCN)cc(C)nc43)c2n1.Cl [Compound 7, N,N'-bis(3-aminopropyl)-3,9-dimethylquino[8,7-h]quinoline-1,7-diamine tetrahydrochloride] | – | – | – | – | – | – | – | – | type of inhibition kinetics (recombinant BoNT/A LC [5]): competitive inhibitors |
| Cc1cc(NCCN)c2ccc3c(ccc4c(NCCN)cc(C)nc43)c2n1.Cl [Compound 8, N,N'-bis(2-aminoethyl)-3,9-dimethylquino[8,7-h]quinoline-1,7-diamine tetrahydrochloride] | – | – | – | – | – | – | – | – | type of inhibition kinetics (recombinant BoNT/A LC [5]): competitive inhibitors |
| Cc1cc(NCCCN(C)C)c2ccc3c(ccc4c(NCCCN(C)C)cc(C)nc43)c2n1.Cl [Compound 9, N,N'-bis[3-(dimethylamino)propyl]-3,9-dimethylquino[8,7-h]quinoline-1,7-diamine tetrahydrochloride] | – | – | – | – | – | – | – | – | anti-EBOV efficacy in vivo (EBOV): possesses anti-EBOV efficacy in vivo with no toxicity |
| CCN(CC)CCNc1cc(C)nc2c1ccc1c2ccc2c(NCCN(CC)CC)cc(C)nc21.Cl [Compound 11, N,N'-bis[2-(diethylamino)ethyl]-3,9-dimethylquino[8,7-h]quinoline-1,7-diamine tetrahydrochloride] | 0.57/0.55 | 1555.41; 1189.46 | 2686.21; 1058.99 | 281.66; 2827.70 | 1555.41; 1189.46 | 2686.21; 1058.99 | <20 | < 25 | Resistance index (RI) C235/D6 [3]: 0.57/0.55; delay of parasite patency relative to control mice [7]: 1 to 2 days; delayed patency [7]: 1 days; causal prophylactic protection ([7]; po): does not provide prophylactic protection; IC50 [8]: 5 to 10 µM; toxicity in vivo (P. berghei (P Line); ICR, po): >60; >60; no toxicity in vivo; in vivo clinical toxicity (P. berghei (P Line)): No evidence of in vivo clinical toxicity; day of succumbing to infection (post-parasite inoculation), non-cured mice (P. berghei (P Line); in vivo): 13 to 21 days; mice cured (negative blood smear on day 31 post-infection) (P. berghei (P Line); in vivo): cured one mouse out of five tested |
| Cc1cc(NCCCN2CCCCC2)c2ccc3c(ccc4c(NCCCN5CCCCC5)cc(C)nc43)c2n1.Cl [Compound 14, 3,9-dimethyl-N,N'-bis(3-piperidin-1-ylpropyl)quino[8,7-h]quinoline-1,7-diamine tetrahydrochloride] | – | – | – | – | – | – | <20 | < 25 | – |
| Cc1cc(NCCCN2CCOCC2)c2ccc3c(ccc4c(NCCCN5CCOCC5)cc(C)nc43)c2n1.Cl [Compound 16, 3,9-dimethyl-N,N'-bis(3-morpholin-4-ylpropyl)quino[8,7-h]quinoline-1,7-diamine tetrahydrochloride] | 0.38/1.54 | 1430.40; 1302.12 | 3740.50; 1728.68 | 929.32; 635.31 | 1430.40; 1302.12 | 3740.50; 1728.68 | <20 | < 25 | Selectivity index (IC50) C235 [6]: 929.32; 635.31; IC50 ([8]; Zaire ebolavirus, Vero 76, 48 h): ~5 µM; IC50 [8]: 2.5 to 5 µM |
| Cc1cc(NCCN2CCOCC2)c2ccc3c(ccc4c(NCCN5CCOCC5)cc(C)nc43)c2n1.Cl [Compound 17, 3,9-dimethyl-N,N'-bis(2-morpholin-4-ylethyl)quino[8,7-h]quinoline-1,7-diamine tetrahydrochloride] | 1.03/1.66 | 1715.68; 2374.36 | 1662.42; 2601.48 | 1033.94; 1815.35 | 1715.68; 2374.36 | 1662.42; 2601.48 | – | – | Resistance index (RI) C235/D6 [3]: 1.03/1.66; Selectivity index (IC50) C235 [6]: 1033.94; 1815.35 |
